# Results reported in patent US20240358672A1, “APPLICATION OF GENISTEIN AND ITS PHOSPHATE ESTER DERIVATIVE AND PHARMACEUTICAL COMPOSITION COMPRISING THE SAME” (National Taiwan University, priority 2023, published 2024).
# Like-named read-outs stand apart in the source and are kept apart here.
# What was measured:
# [1] = test system: hiPSC-ECs; experiment: qPCR gene expression in hiPSC-ECs; format: cell-based, human; details: 48 hours
# [2] = test system: mouse thoracic arteries; experiment: Wire myograph of isolated mouse thoracic aortas; format: in vivo, C57BL/6J mice
# Method: (§1) FIG. 7A: Isometric tension recordings of isolated mice thoracic aortas were performed using a wire myograph. Vascular concentration-dependent relaxation was induced by acetylcholine (ACh) in pre-constricted mouse thoracic arteries. […] FIG. 7C: Luminex analysis of inflammatory cytokines in plasma of C57BL/6J mice treated with vehicle control, Δ^9-THC, or Δ^9-THC plus genistein. […] FIG. 7E: Effect of Δ^9-THC and genistein on NF-κB phosphorylation in mouse thoracic artery. Total cell lysates were prepared, and the expressions of phosphor-NF-κB were analyzed by ELISA (upper left). Superoxide dismutase (SOD) activity of serum from mouse (bottom left). The effect of Δ^9-THC and genistein on NF-κB phosphorylation in mouse thoracic artery tissues (n=5). Total cell lysates were prepared, and the expressions of NF-κB, phosphorylated NF-κB, and β-actin were analyzed by western blot analysis (right panel). FIG. 7F: The levels reduced glutathione (GSH), Oxidized glutathione (GSSG), Total glutathione (T-GSH) and GSH/GSSG in the serum samples of mice were detected. Plasma isolated from C57BL/6J mice (n=5) treated with vehicle control, Δ^9-THC, genistein, or their combination every day for 30 days was analyzed by the glutathione colorimetric assay kit (BioVision, K261).
# [3] = test system: C57BL/6J mice; format: in vivo
# Method: as §1
# Genistein also rescued the oxidative stress protective-related gene expression (FIG. 7D). In addition, NF-κB phosphorylation and SOD expression in mouse serum were also attenuated with genistein (FIG. 7E). Δ^9-THC administration decreased circulating levels of the antioxidant glutathione, which was ameliorated with genistein cotreatment (FIG. 7F).
# [4] = test system: engineered heart tissues (EHTs) composed of hiPSC-ECs and hiPSC-CMs; experiment: Engineered heart tissues (EHTs) contractility
# Method: (§2) FIG. 8A to 8C illustrate the effects of genistein and Δ^9-THC on cardiac contraction in vivo or in vitro experiments according to Example 9. […] After treatment exposure, the contractility, relaxation and peak force of EHT were measured using the Sony imaging platform. FIG. 8B: Same as the former, analysis of heart rate and contraction-relaxation (CR) interval (48 hours). […] Mice were anesthetized with 1%-2% isoflurane, and images were acquired in the parasternal long-axis (PLA) and parasternal short axis (PSA) on a Visualsonic Vevo 2100 platform. The ventricular (LV) dimensions were traced offline, and the ejection fraction (EF) was calculated using Simpson's biplane method of discs.
# (§3) The inventor used engineered heart tissues (EHTs) composed of hiPSC-ECs and hiPSC-derived cardiomyocytes (hiPSC-CMs) to interrogate the effects of genistein and Δ^9-THC on contractility in vitro.
# [5] = test system: C57BL/6J mice; experiment: Echocardiographic analysis of mice
# Method: as §2, §3
# [6] = test system: Apoe^−/− mice; experiment: Apoe−/− partial carotid artery ligation (PCAL) atherosclerosis model; format: in vivo, mouse; details: HFD 10 days
# Excerpt: FIG. 10A to 10C illustrate the effects of Δ^9-THC and genistein on the treatment of atherosclerosis in vivo using the Apoe^−/− mouse model according to Example 10. FIG. 10A: Gross images of carotid arteries after oil red O staining are shown (left panel). The scale bar represents 1 mm. A diagram of partial ligation of the carotid artery is shown (right panel). […] The right subclavian artery (RSA), right common carotid artery (RCA), and left subclavian artery (LSA) were unligated and remained patent. FIG. 10B: Carotid artery sections were counterstained with hematoxylin and eosin (H&E), and a representative slide was presented with scale bars at 100 μm (left panel). Oil red O staining of atherosclerotic plaques in cross-section of mouse carotid artery with scale bar at 100 μm. The atherosclerotic plaques were quantified (right panel). FIG. 10C: Carotid artery sections were immunostained with an anti-F4/80 antibody. […] Quantification of F4/80-positive area within carotid artery sections (top right). Carotid artery sections were immunostained with an anti-CD68 antibody. […] Quantification of CD68-positive area within carotid artery sections is shown (bottom right).
# Further, an Apoe^−/− mouse model was also employed to investigate the effects of Δ^9-THC and cotreatment with genistein on atherosclerosis. Partial carotid artery ligation (PCAL) was performed in Apoe^−/− mice at 10-16 weeks. […] All mice were fed a HFD for 10 days. At the end of the treatment protocol, the Apoe^−/− mice were euthanized and subjected to histological analysis. […] Macrophage recruitment was tested using the macrophage-specific F4/80 antibody and CD68 antibody. […] Consistent with the Ldlr^−/− model findings, the Apoe^−/− PCAL mouse model found increased plaque size and increased macrophage recruitment with Δ^9-THC, and genistein cotreatment ameliorated these indices of atherosclerosis in ligated carotid arteries.
# [7] = test system: C57BL/6J mice; experiment: Neurobehavioral tetrad (Billy Martin tetrad) in mice
# Method: FIG. 13 illustrate the effect of genistein on the neurobehavioral effects of Δ^9-THC according to Example 12. C57BL/6J mice were exposed to (1) vehicle control (intraperitoneal [i.p.], and oral [p.o.], n=8), (2) Δ^9-THC at 20 mg/kg i.p. and p.o. vehicle (n=9), (3) genistein at 50 mg/kg p.o. and i.p. vehicle (n=8), and (4) combination of Δ^9-THC at 20 mg/kg i.p. and genistein at 50 mg/kg p.o. (n=9). […] Hypothermia was assessed by measuring body temperature using a rectal probe before and 60 min after treatment. The catalepsy test measures the time a mouse remained immobile on the bar. Analgesia was measured by placing mice on a hot plate and recording the time for the mouse to withdraw or lick.
# These are described as the Billy Martin tetrad.
# Therefore, the neurological effects of Δ^9-THC and genistein co-administration were tested in C57BL/6J mice treated with vehicle, genistein, Δ^9-THC, or in combination. The tetrad effects were assessed using an activity chamber for mobility, a hot plate for analgesia, a rectal probe for hypothermia, and the bar test for […].
# [8] = test system: hiPSC-ECs; experiment: Western blot / immunofluorescence of p38 and NF-κB (p65) in hiPSC-ECs; details: 48 hours
# [9] = single agent: Δ^9-THC 1 mg/kg i.p. or genistein 50 mg/kg p.o.
# [10] = 10 μM genistein with 5 μM Δ^9-THC
# [11] = Δ^9-THC 1 mg/kg plus genistein 50 mg/kg
smiles,measurement,setting,value
"CCCCCc1cc(O)c2c(c1)OC(C)(C)[C@@H]1CCC(C)=C[C@@H]21 [Δ^9-THC, Δ^9-tetrahydrocannabinol]",TLR4 expression,[1]; 5 μM Δ^9-THC alone,induced TLR4 expression
same,expression of ROS-related genes NOX1 and NOS2,[1]; 5 μM Δ^9-THC alone,upregulated
same,"mRNA expression of antioxidant-related genes (SOD1, SOD2, CAT, GPX1)",[1]; 5 μM Δ^9-THC alone,decreased mRNA expression
same,expression of I kappa B (NFKBIA),[1]; Δ^9-THC alone,inhibited
same,expression of proinflammatory cytokines and chemokines,[1]; Δ^9-THC alone,increased
same,endothelial function (ACh-induced relaxation),[2]; Δ^9-THC 1 mg/kg,induced endothelial dysfunction
same,"plasma IL-6, IL-3 and IL-10 (Luminex)",[3]; Δ^9-THC alone,elevated
same,circulating levels of the antioxidant glutathione,"[3]; Δ^9-THC alone, every day for 30 days",decreased
same,beat rate of EHTs,"[4]; 5 μM Δ^9-THC, 48 hours",decreased beat rate
same,contraction-relaxation interval of EHTs,"[4]; 5 μM Δ^9-THC, 48 hours",increased the contraction-relaxation interval
same,"cardiac structure or function (EF, HR, LVEDV, LVEDM)",[5]; [9],did not affect cardiac structure or function
same,CD68-positive area in ligated carotid artery,[6]; Δ^9-THC 1 mg/kg,significantly increased
same,F4/80-positive area in ligated carotid artery,[6]; Δ^9-THC 1 mg/kg,significantly increased
same,plaque area in ligated carotid artery (oil red O),[6]; Δ^9-THC 1 mg/kg,increased
same,analgesia (hot plate),[7]; Δ^9-THC 20 mg/kg i.p.,analgesia
same,hypothermia (rectal probe),[7]; Δ^9-THC 20 mg/kg i.p.,hypothermia
same,mobility (activity chamber),[7]; Δ^9-THC 20 mg/kg i.p.,decreased mobility
same,sedation (bar test),[7]; Δ^9-THC 20 mg/kg i.p.,sedation
same,p65 (NF-κB) phosphorylation,[8]; 5 μM Δ^9-THC alone,caused p65 phosphorylation
same,phosphorylation of p38,[8]; 5 μM Δ^9-THC alone,increased phosphorylation of p38
same,nuclear translocation of NF-κB (p65),[8]; 5 μM Δ^9-THC,induced
O=c1c(-c2ccc(O)cc2)coc2cc(O)cc(O)c12 [genistein],NOS2 and NOX1 expression,[1]; [10],salutatory effect
same,Δ^9-THC-induced TLR4 expression,[1]; [10],disrupted its expression
same,Δ^9-THC-induced endothelial dysfunction,[2]; [11],mitigated the effect
same,Δ^9-THC-induced mRNA expressions of inflammation-related genes in mouse thoracic artery tissues,[3]; Δ^9-THC 1 mg/kg plus genistein 50 mg/kg or rimonabant 3 mg/kg,ameliorated
same,NF-κB phosphorylation in mouse thoracic artery,[3]; Δ^9-THC plus genistein,attenuated
same,SOD expression in mouse serum,[3]; Δ^9-THC plus genistein,attenuated
same,oxidative stress protective-related gene expression in thoracic artery tissues,[3]; Δ^9-THC plus genistein,rescued
same,"plasma IL-6, IL-3 and IL-10 (Luminex)",[3]; Δ^9-THC plus genistein cotreatment,significantly reduced
same,Δ^9-THC-decreased circulating glutathione,"[3]; Δ^9-THC plus genistein cotreatment, every day for 30 days",ameliorated
same,"contraction, relaxation, and peak force of EHTs",[4],no significant effect
same,Δ^9-THC effects on beat rate and contraction-relaxation interval,[4],did not attenuate these effects
same,"cardiac structure or function (EF, HR, LVEDV, LVEDM)",[5]; cotreatment Δ^9-THC 1 mg/kg i.p. and genistein 50 mg/kg p.o.,did not affect cardiac structure or function
same,"cardiac structure or function (EF, HR, LVEDV, LVEDM)",[5]; [9],did not affect cardiac structure or function
same,CD68-positive area in ligated carotid artery,[6]; [11],reduced
same,F4/80-positive area in ligated carotid artery,[6]; [11],decreased
same,plaque size in ligated carotid artery (oil red O),[6]; [11],ameliorated the plaque size
same,tetrad effects,[7]; genistein 50 mg/kg p.o. alone,did not affect tetrad effects
same,Δ^9-THC neurobehavioral effects,[7]; Δ^9-THC 20 mg/kg i.p. and genistein 50 mg/kg p.o.,could not attenuate
same,Δ^9-THC-induced NF-κB phosphorylation,[8]; [10],attenuated NF-κB phosphorylation
same,Δ^9-THC-induced p38 phosphorylation,[8]; [10],decreased
